Experimental findings from patent publication US4020076A, “Novel phosphoryloxy-thiazoles” (priority 1974, dated 1977) are described below.

One assay deals with Blattella germanica. The experiment in a line: Topical application activity against Blattella germanica. Format: in vivo. Particulars: read-out: percent of mortality. On the procedure:
b. Activity against Blattella germanica
This test was a topical application in which adult male Blattella germanica received 2 microliters of an acetone solution of the test products between the second and third pair of paws. After this treatment, the test insects were held in a dim light at 20° C and were fed. The results expressed as percent of mortality in Table II were read 24 and 48 hours and 5 days after the treatment.

The subject of assay [1] is Agrostis Segetum caterpillars. The experiment in a line: Activity against Agrostis Segetum caterpillars. It counts as in vivo. On the procedure: i. Activity against Agrostis Segetum caterpillars
Larvae of Agrostis Segetum in the fifth stage were placed in small boxes whose bottom (26 cm on a side) is in the form of a square with a height of 20 cm. The boxes were filled with dirt to a height of 8 cm and 5 lettuce plants of about 15 cm high were planted and 10 caterpillars were placed in each box and after 3 hours, the boxes were each sprayed with 5 ml of an aqueous solution of the test product and the percent of efficacy is reported in Table IX.

Like-named read-outs stand apart in the source and are kept apart here.

The mortality is the percentage killed. Regarding `CCOc1nc(OP(=S)(OC)OC)c(C#N)s1` [Compound C, 2-ethoxy-4-dimethoxythiophosphoryloxy-5-cyano-thiazole], the mortality at 312.5 ppm was determined as 80% with Blattella germanica (24 H); 80% in the assay on Blattella germanica (48 H); 80% in the assay on Blattella germanica (120 h, 5 Days). In addition, the mortality at 625 ppm with Blattella germanica (24 H) stood at 100%; in the assay with Blattella germanica (48 H), 100%; with Blattella germanica (120 h, 5 Days), 100%. Moreover, the mortality at 1250 ppm in the assay with Blattella germanica (24 H) came out at 100%; in the assay on Blattella germanica (48 H) it was 100%; in the assay on Blattella germanica (120 h, 5 Days), 100%. Moreover, the Emax is 50% in assay [1] (72 h, 50 g/hl, read-out: % efficacy after 3 days); 80% in assay [1] (72 h, 150 g/hl, read-out: % efficacy after 3 days); 25% in assay [1] (72 h, read-out: % efficacy after 3 days, 100 g/hl); 100% in assay [1] (120 h, 50 g/hl, read-out: % efficacy after 5 days); 100% in assay [1] (120 h, 150 g/hl, read-out: % efficacy after 5 days); 50% in assay [1] (120 h, read-out: % efficacy after 5 days, 100 g/hl). In addition, the Emax in assay [1] (168 h, 50 g/hl, read-out: % efficacy after 7 days) was found to be 100%; in assay [1] (168 h, 150 g/hl, read-out: % efficacy after 7 days) it was 100%; in assay [1] (168 h, read-out: % efficacy after 7 days, 100 g/hl) it was 100%.
